# Data from the supplement of paper PMC8967900.
# System: HPB-ALL
# Experiment: selective drug sensitivity score (sDSS, relative to normal bone marrow) (sDSS (score)); higher = more potent and effective on the cell line relative to normal bone marrow cells
# Conditions: 72 h
# 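Further: ALL cell lines in 384-well plates, five doses spanning 10,000-fold, each plate scaled between vehicle and 100 µmol/L benzalkonium chloride controls, sDSS an adapted area-under-curve metric.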
row,Compound,selective drug sensitivity score
1,Cn1cc(C2=C(c3cn(C4CCN(Cc5ccccn5)CC4)c4ccccc34)C(=O)NC2=O)c2ccccc21 [Enzastaurin] (top concentration 10000 nM),-0.24
2,NS(=O)(=O)NCCNc1nonc1/C(=N/O)Nc1ccc(F)c(Br)c1 [Epacadostat] (top concentration 10000 nM),-0.16
3,CCOc1ccccc1-n1c(C(C)N2CCN(C(=O)COc3ccc(Cl)cc3)CC2)nc2ccccc2c1=O (stereo not given) [Erastin] (top concentration 10000 nM),6.54
4,COc1cc(OC)cc(N(CCNC(C)C)c2ccc3ncc(-c4cnn(C)c4)nc3c2)c1 [Erdafitinib] (top concentration 1000 nM),1.64
5,CC(C)(C)NC(=O)[C@H]1CC[C@H]2[C@@H]3CC[C@H]4NC(=O)C=C[C@]4(C)[C@H]3CC[C@]12C [Finasteride] (top concentration 10000 nM),0.28
6,O=c1[nH]c(=O)n([C@H]2C[C@H](O)[C@@H](CO)O2)cc1F [Floxuridine] (top concentration 10000 nM),1.12
7,CNc1nc(Nc2cn(C(C)(C)C#N)nc2C)ncc1C(F)(F)F [GNE-0877] (top concentration 1000 nM),0
8,CCCc1cc(C)[nH]c(=O)c1CNC(=O)c1cc(-c2ccnc(N3CCN(C)CC3)c2)cc2c1cnn2C(C)C [GSK343] (top concentration 1000 nM),0
9,O=C(O)c1ccc(O)c2ncccc12 [IOX-1] (top concentration 100000 nM),2.94

# System: RPMI-8402
# Experiment: as above
# Conditions: 72 h
row,Compound,selective drug sensitivity score
1,CCCCCOC(=O)Nc1nc(=O)n([C@@H]2O[C@H](C)[C@@H](O)[C@H]2O)cc1F [Capecitabine] (top concentration 10000 nM),-0.06
2,Nc1nc(Cl)nc2c1ncn2[C@H]1C[C@H](O)[C@@H](CO)O1 [Cladribine] (top concentration 1000 nM),-4.74
3,CCN(CC)CCOc1ccc(/C(=C(/Cl)c2ccccc2)c2ccccc2)cc1 [Clomifene] (top concentration 10000 nM),0.32
4,CO[C@@H](C(=O)N1Cc2[nH]nc(NC(=O)c3ccc(N4CCN(C)CC4)cc3)c2C1)c1ccccc1 [Danusertib] (top concentration 10000 nM),6.54
5,CC[C@@](C)(Nc1ccnc(-c2c[nH]c3ncccc23)n1)C(=O)NCC(F)(F)F [Decernotinib] (top concentration 10000 nM),-3.44
6,CN1CCN(c2ccc3nc(-c4c(N)c5c(F)cccc5[nH]c4=O)[nH]c3c2)CC1 [Dovitinib] (top concentration 10000 nM),-0.14
7,CC(C)(O)CNc1nc(Nc2ccnc(C(F)(F)F)c2)nc(-c2cccc(C(F)(F)F)n2)n1 [Enasidenib] (top concentration 10000 nM),0.4
8,CN1CCN(c2ccc(C(=O)Nc3n[nH]c4ccc(Cc5cc(F)cc(F)c5)cc34)c(NC3CCOCC3)c2)CC1 [Entrectinib] (top concentration 1000 nM),-1.2
9,CNC(=O)c1ccc(N2C(=S)N(c3ccc(C#N)c(C(F)(F)F)c3)C(=O)C2(C)C)cc1F [Enzalutamide] (top concentration 10000 nM),0.48
10,Cn1cc(C2=C(c3cn(C4CCN(Cc5ccccn5)CC4)c4ccccc34)C(=O)NC2=O)c2ccccc21 [Enzastaurin] (top concentration 10000 nM),5.86
11,NS(=O)(=O)NCCNc1nonc1/C(=N/O)Nc1ccc(F)c(Br)c1 [Epacadostat] (top concentration 10000 nM),0.54
12,CCOc1ccccc1-n1c(C(C)N2CCN(C(=O)COc3ccc(Cl)cc3)CC2)nc2ccccc2c1=O (stereo not given) [Erastin] (top concentration 10000 nM),-5.96
13,COc1cc(OC)cc(N(CCNC(C)C)c2ccc3ncc(-c4cnn(C)c4)nc3c2)c1 [Erdafitinib] (top concentration 1000 nM),-0.56
14,CC(C)(C)NC(=O)[C@H]1CC[C@H]2[C@@H]3CC[C@H]4NC(=O)C=C[C@]4(C)[C@H]3CC[C@]12C [Finasteride] (top concentration 10000 nM),-0.52
15,O=c1[nH]c(=O)n([C@H]2C[C@H](O)[C@@H](CO)O2)cc1F [Floxuridine] (top concentration 10000 nM),26
16,CNc1nc(Nc2cn(C(C)(C)C#N)nc2C)ncc1C(F)(F)F [GNE-0877] (top concentration 1000 nM),0
17,CCCc1cc(C)[nH]c(=O)c1CNC(=O)c1cc(-c2ccnc(N3CCN(C)CC3)c2)cc2c1cnn2C(C)C [GSK343] (top concentration 1000 nM),0
18,O=C(O)c1ccc(O)c2ncccc12 [IOX-1] (top concentration 100000 nM),2.64

# System: 380
# Experiment: as above
# Conditions: 72 h
row,Compound,selective drug sensitivity score
1,CCCCCOC(=O)Nc1nc(=O)n([C@@H]2O[C@H](C)[C@@H](O)[C@H]2O)cc1F [Capecitabine] (top concentration 10000 nM),-0.06
2,Nc1nc(Cl)nc2c1ncn2[C@H]1C[C@H](O)[C@@H](CO)O1 [Cladribine] (top concentration 1000 nM),7.56
3,CCN(CC)CCOc1ccc(/C(=C(/Cl)c2ccccc2)c2ccccc2)cc1 [Clomifene] (top concentration 10000 nM),1.42
4,CO[C@@H](C(=O)N1Cc2[nH]nc(NC(=O)c3ccc(N4CCN(C)CC4)cc3)c2C1)c1ccccc1 [Danusertib] (top concentration 10000 nM),22.4
5,CC[C@@](C)(Nc1ccnc(-c2c[nH]c3ncccc23)n1)C(=O)NCC(F)(F)F [Decernotinib] (top concentration 10000 nM),2.56
6,CN1CCN(c2ccc3nc(-c4c(N)c5c(F)cccc5[nH]c4=O)[nH]c3c2)CC1 [Dovitinib] (top concentration 10000 nM),-0.14
7,CC(C)(O)CNc1nc(Nc2ccnc(C(F)(F)F)c2)nc(-c2cccc(C(F)(F)F)n2)n1 [Enasidenib] (top concentration 10000 nM),-0.8
8,CN1CCN(c2ccc(C(=O)Nc3n[nH]c4ccc(Cc5cc(F)cc(F)c5)cc34)c(NC3CCOCC3)c2)CC1 [Entrectinib] (top concentration 1000 nM),-1.2
9,CNC(=O)c1ccc(N2C(=S)N(c3ccc(C#N)c(C(F)(F)F)c3)C(=O)C2(C)C)cc1F [Enzalutamide] (top concentration 10000 nM),-0.82
10,Cn1cc(C2=C(c3cn(C4CCN(Cc5ccccn5)CC4)c4ccccc34)C(=O)NC2=O)c2ccccc21 [Enzastaurin] (top concentration 10000 nM),3.96
11,NS(=O)(=O)NCCNc1nonc1/C(=N/O)Nc1ccc(F)c(Br)c1 [Epacadostat] (top concentration 10000 nM),-0.26
12,CCOc1ccccc1-n1c(C(C)N2CCN(C(=O)COc3ccc(Cl)cc3)CC2)nc2ccccc2c1=O (stereo not given) [Erastin] (top concentration 10000 nM),24.8
13,COc1cc(OC)cc(N(CCNC(C)C)c2ccc3ncc(-c4cnn(C)c4)nc3c2)c1 [Erdafitinib] (top concentration 1000 nM),-0.56
14,CC(C)(C)NC(=O)[C@H]1CC[C@H]2[C@@H]3CC[C@H]4NC(=O)C=C[C@]4(C)[C@H]3CC[C@]12C [Finasteride] (top concentration 10000 nM),-0.52
15,O=c1[nH]c(=O)n([C@H]2C[C@H](O)[C@@H](CO)O2)cc1F [Floxuridine] (top concentration 10000 nM),37.9
16,CNc1nc(Nc2cn(C(C)(C)C#N)nc2C)ncc1C(F)(F)F [GNE-0877] (top concentration 1000 nM),0
17,CCCc1cc(C)[nH]c(=O)c1CNC(=O)c1cc(-c2ccnc(N3CCN(C)CC3)c2)cc2c1cnn2C(C)C [GSK343] (top concentration 1000 nM),0
18,O=C(O)c1ccc(O)c2ncccc12 [IOX-1] (top concentration 100000 nM),8.64
